Results from patent US10624968B2, “Compounds for treating cancer” (Bicycle Therapeutics Limited, priority 2017, dated 2020).
Where two headings read alike, the source gives them in different places. Starred links: 1 amine or outer side, 2 acyl side, 3 side chain; linkers in the order of their positions; H or OH if unused. Positions of bridges follow the written chain, without caps; N, C: chain ends. Non-standard residues stand in square brackets, D forms with d. Residues, ends and D or L forms follow the SMILES beside them. Chains are numbered I, II in the order given. ξ: configuration not given here. *: point of attachment. Dolaproine = CO[C@@H]([C@@H]1CCCN1)[C@@H](C)C(=O)O; Dil = CC[C@H](C)[C@H](NC)[C@@H](CC(=O)O)OC; TBMB = c1c(C[*:1])cc(C[*:3])cc1C[*:2]; X2 = O=C(CCCC(=O)[*:2])NCCC(=O)[*:1]; PABC = O=C(OCc1ccc(N[*:1])cc1)[*:2]; X1 = C[C@@H](N*)[C@@H](O)c1ccccc1; ξ1Nal = NC(Cc1cccc2ccccc12)C(=O)O; Cit = NC(=O)NCCC[C@H](N)C(=O)O; NMeV = CN[C@H](C(=O)O)C(C)C; ξY = NC(Cc1ccc(O)cc1)C(=O)O; ξTle = CC(C)(C)C(N)C(=O)O; ξF = NC(Cc1ccccc1)C(=O)O; ξE = NC(CCC(=O)O)C(=O)O; ξD = NC(CC(=O)O)C(=O)O; ξN = NC(=O)CC(N)C(=O)O; ξC = NC(CS)C(=O)O; ξA = CC(N)C(=O)O; Sar = CNCC(=O)O

How the values were obtained:
HT1080 cells = experiment: Cytotoxicity in HT1080 cells in presence and absence of 1 mM bacitracin (ATPlite, 24 hour exposure)
Description: HT1080 cells (ATCC, via LGC, BIC918) Maintained in EMEM media (Sigma M2279)+10% FBS (Sigma Code F7524)+4 mM L-Glu (Invitrogen Cat 25030-024)
I-1a and Toxins with Bacitracin—24 or 72 Hour Exposure in 96 Well Plates
DB seeded cells in normal media, 75 μL in 96 well clear plates, ˜24 hours previous.
HT1080—7.5 k cells/well: 50% confluent upon dosing.
Dilute in media 1:42.85=5 μL DMSO dilute+209 μL media=>use 15 μL per well
This gives a 5 μM top concentration for BDCs in assay
Add 10 µL of media±bacitracin (2 plates of each)−leave for 1 hr
Bacitracin=1 mM final concentration. This requires a 10 mM concentration with no DMSO.
Add 15 μL treatment per well as in Table 19, below.
Seal plates with gas permeable membrane and incubate at 37° C.
Washout HT1080 plates with 2×150 μL PBS at 24 h and add 100 μL fresh media
At t=72 h, equilibrate ATPlite reagent to room temperature. Add 10 ml buffer to each vial of lyophilized substrate. Add 100 μL reagent per well. Seal with PCR seal and cover to protect from light. Shake for 20 mins before reading luminescence

NCI-H1975 = experiment: cells; conditions: read-out: Re IC50; NCI-H1975; 72 hours
How it was run: (§1)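 Percent inhibition was calculated as (Max−Sample value)/(Max−Min)×100. IC50 values came from a four-parameter logistic sigmoidal dose-response fit: Y=Bottom+(Top−Bottom)/(1+10^((log EC50−X)*HillSlope)).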

MDA-MB-231 = experiment: cells; conditions: read-out: Re IC50; MDA-MB-231; 72 hours
How it was run: as §1

HT1080 = experiment: cells; conditions: read-out: Re IC50; HT1080; 72 hours
How it was run: as §1

HCC1806 = experiment: cells; conditions: read-out: Re IC50; HCC1806; 72 hours
How it was run: as §1

HCT15 = experiment: cells; conditions: read-out: Re IC50; HCT15; 72 hours
How it was run: as §1

EBC-1 = experiment: cells; conditions: read-out: Re IC50; EBC-1; 72 hours
How it was run: as §1

PC-3 = experiment: cells; conditions: read-out: Re IC50; PC-3; 72 hours
How it was run: as §1

## CC[C@H](C)[C@@H]([C@@H](CC(=O)N1CCC[C@H]1[C@H](OC)[C@@H](C)C(=O)N[C@H](C)[C@@H](O)c1ccccc1)OC)N(C)C(=O)[C@@H](NC(=O)[C@H](C(C)C)N(C)C(=O)OCc1ccc(NC(=O)[C@H](CCCNC(N)=O)NC(=O)[C@@H](NC(=O)CCCC(=O)NCCC(=O)N(C)CC(=O)N(C)CC(=O)N(C)CC(=O)N(C)CC(=O)N(C)CC(=O)N(C)CC(=O)N(C)CC(=O)N(C)CC(=O)N(C)CC(=O)N(C)CC(=O)NC(C)C(=O)NC2CSCc3cc4cc(c3)CSCC(NC(=O)C(C)NC(=O)C(Cc3cccc5ccccc35)NC(=O)C(CCC(=O)O)NC(=O)C(CC(N)=O)NC(=O)C(C)NC2=O)C(=O)NC(CCC(=O)O)C(=O)NC(CC(=O)O)C(=O)NC(Cc2ccccc2)C(=O)NC(Cc2ccc(O)cc2)C(=O)NC(CC(=O)O)C(=O)NC(C(C)(C)C)C(=O)NC(C(N)=O)CSC4)C(C)C)cc1)C(C)C (stereo partly drawn) [Compound I-1a] (I: [Sar][Sar][Sar][Sar][Sar][Sar][Sar][Sar][Sar][Sar][ξA][ξC][ξA][ξN][ξE][ξ1Nal][ξA][ξC][ξE][ξD][ξF][ξY][ξD][ξTle][ξC]-NH2 / II: V[Cit][PABC][NMeV]V[Dil][Dolaproine]-X1; linker I:12-I:18-I:25 via TBMB; linker I:N-II:N via X2)
HT1080 cells; read-out: IC50 with 1 mM bacitracin, 24 hour exposure, + 1 mM bacitracin (PDI inhibitor)
  IC50: 7.3 nM
HT1080 cells; read-out: Standard IC50, 24 hour exposure (high MT1 expression), no block
  IC50: 5.3 nM
NCI-H1975
  IC50: 24.2 nM
MDA-MB-231
  IC50: 211 nM
HT1080
  IC50: 21.4 nM
HCC1806
  IC50: 15.2 nM
HCT15
  IC50: > 5000 nM
EBC-1
  IC50: 35.7 nM
PC-3
  IC50: 102 nM
